Data from patent US10039729B2, “Use of kukoamine A and kukoamine B” (Tianjin Chase Sun Pharmaceutical Co., Ltd., priority 2010, dated 2018).
Like-named read-outs stand apart in the source and are kept apart here.

How the values were obtained:
[1] = system: mice challenged by heat-killed Escherichia coli; assay: LPS and TNF-α levels in blood of mice challenged by heat-killed E. coli; type: in vivo, Kunming mice; conditions: for LPS level in mice blood / TNF-α level in mice blood: 40 mg/kg 10 min after heat-killed E. coli 1.1×10^10 CFU/Kg, various time points, p<0.05 or p<0.01 vs control
Experimental: 8.1 Methods: Supernatant of heat-killed E. coli was prepared according to 2.3.3 items of embodiment 2; absorbance values of the supernatant were assayed at 600 nm (OD600 value 1.0≈1.0×10^10 CFU/ml); a total of 84 Kunming mice, half male and half female, were divided into three groups randomly: heat-killed E. coli control group, KA (40 mg/kg) plus heat-killed E. coli group and KB (40 mg/kg) plus heat-killed E. coli group; each group has 28 mice; after animals were weighed, heat-killed E. coli control group was injected with heat-killed E. coli(1.1×10^10 CFU/Kg); the other two groups were respectively injected with KA or KB (40 mg/kg) at 10 min after injection of heat-killed E. coli(1.1×10^10 CFU/Kg); the total injection of each animal was 200 μl per 20 g body weight; orbital venous blood of mice was collected at time point of 0, 2, 4, 8, 12, 24, 48 and 72 h after injection; LPS level was assayed by kinetic turbidimetric limulus test, and TNF-α was assayed by ELISA.
28.1 Methods: Kunming mice were randomly divided into two groups, and there were 56 mice in each group; heat-killed E. coli was diluted to make 1.0×10^9 CFU/ml suspension, and KB was dissolved to 6 mg/ml with sterile saline; caudal vein injection was adopted; medium group was injected with heat-killed Escherichia coli (0.2 ml per 20 g body weight) and sterile saline (0.2 ml per 20 g body weight); KB treatment groups were injected with heat-killed E. coli suspension S (0.2 ml per 20 g body weight) and KB (0.2 ml per 20 g body weight). Orbital venous blood of mice in medium group and KB treatment group was collected at time point of 0, 4, 8, 12, 24, 48 and 72 h after injection, the specific methods are: mice were killed by cervical dislocation, and immersed in 75% ethanol for skin degerming; the eye of mouse was removed, and blood was collected into a 1.5 ml EP tube; 10 μl blood were added into 190 μl nonpyrogenic water; solution was kept standing for 5-10 min for neutral sedimentation, and centrifuged at 1000 rpm for 10 min; the supernatant was transferred into a new centrifuge tube and stored at −20° C. for further detection; the rest was keep standing until aggregation and serum precipitation, then centrifuged at 3000 rpm for 10 min; the supernatant was transferred into a new centrifuge tube and stored at −20° C. for further detection;
(1) Detection of LPS levels in plasma: 10 μl plasma sample was dissolved in 190 μl sterile saline and mixed. Detection of LPS levels was performed according to the operating procedure of EDS-99 Bacterial Endotoxin Detecting system. Result was expressed by means of mean±standard deviation.
(2) Detection of serum cytokine levels: Because of the small blood volume of mouse, serum was diluted 2 times for detection. Detection of the TNF-α concentration was performed according to the manufacturer's instructions of ELISA kit. Result was expressed by means of mean±standard deviation.

[2] = Affinity biosensor binding with LPS
Description: Immobilization of lipid A and CpG DNA: Using Optically-Based Affinity Biosensors technology, Lipid A, the biologic active centres of LPS, and CpG DNA were respectively, immobilized on the reacting surfaces of cuvettes in an IAsys plus affinity biosensor according to the manufacturer's instructions of IAsys Affinity Sensor. The end of hydrophobic side chain of lipid A was immobilized on cuvette with hydrophobic surface, and the phosphate group (active group of lipid A) at the other end was floating and exposing to the outside, which act as target spot of binding with active constituents for disease treatment in traditional Chinese medicine. The active constituents in solution were binded to lipid A through electrostatic interaction. Biotinylated CpG DNA was immobilized on the surface of a biotin cuvette by linking to avidin, which had been coated on the surface of a biotin cuvette, and then the unlabeled group of CpG DNA was floating and exposing to the outside, which act as target spot of binding with active constituents for disease treatment in traditional Chinese medicine. The active constituents in solution were binded to CpG DNA through the electrostatic interaction and embodiment.
Detection of the aqueous herbal extract: The crude drugs of 114 traditional Chinese herbs were pulverized. 1 g of each powder was added with 10 ml distilled water, boiled at 100° C. for 1.5 h, centrifuged at 4000 rpm for 20 min, filtrated and then collected the supernatant. 5 μl of aqueous herbal extracts of each herb were used to detect their binding with lipid A or CpG DNA. […]
9.1 Methods: KB was separately diluted with PBS to make solutions of 0.25, 0.5, 1, 2 and 4 μM; 5 μl of each solution was separately loaded; binding reaction of KB of various concentration with LPS and CpG DNA was assayed according to the methods in embodiment 1. The dissociation equilibrium constant (KD) of KB with LPS and CpG DNA was calculated using the IAsys FASTfit software. […]

[3] = system: murine peritoneal macrophages; assay: Release of TNF-α and IL-6 in murine peritoneal macrophages induced by LPS and CpG DNA (ELISA); type: cell-based, KM mice; conditions: 50, 100 and 200 μM, TNF-α at 4 h, IL-6 at 12 h
Experimental: Separation and culture of murine peritoneal macrophages: KM mice were killed by cervical dislocation and immediately immersed in 75% ethanol for skin degerming; then abdominal skin was aseptically cut open; precooling DMEM cell culture medium was slowly injected in exposed peritoneum with a 5 ml syringe; murine abdomen was gently massaged for sufficient cell collection; subsequently, DMEM was withdrew, transferred into 10 ml centrifuge tube, centrifuged at 500 rpm for 5 min, resuspended in DMEM supplemented with 10% (v/v) NCS, transferred into cell culture bottle, and then cultured at 37° C. in a 5% CO2 humidified incubator for 2 h; culture medium was replaced with fresh culture medium to remove unattached cells; over 95% of the remained cells were murine peritoneal macrophages, which continued to be cultured and proliferated.
Loading and detection: According to the method in embodiment 6, KB and PMB were separately diluted in DMEM supplemented with 10% (v/v) NCS and transferred into culture medium of […] to achieved final concentrations of 50, 100 and 200 μM; RAW264.7 cells continued to be incubated; the supernatant was collected four hours later for TNF-α detection; the supernatant at were collected 12 hours later for IL-6 detection; the concentration of TNF-α and IL-6 of each group was detected according to the manufacturer's instructions of ELISA kit; result was expressed by means of mean±standard deviation.

Compound | LPS level in mice blood [1] | TNF-α level in mice blood [1] | Kd ([2]; KB 0.25-4 μM, IAsys FASTfit, read-out: dissociation equilibrium constant (KD) with LPS) | Kd ([2]; with LPS, read-out: dissociation equilibrium constant (KD = kass/kdiss)) | release of TNF-α and IL-6 induced by CpG DNA [3] | release of TNF-α and IL-6 induced by LPS [3] | LPS levels in mice plasma vs heat-killed E. coli control group ([1]; sublethal heat-killed E. coli, KB 6 mg/ml, 0.2 ml per 20 g, 4, 8, 12, 24 and 48 h, p<0.05 or p<0.01) | TNF-α levels in mice serum vs heat-killed E. coli control group ([1]; sublethal heat-killed E. coli, KB 6 mg/ml, 0.2 ml per 20 g, 4, 8, 12 and 24 h, p<0.01) | affinity with LPS ([2]; 4 μM solution, 5 μl loaded)
O=C(CCc1ccc(O)c(O)c1)NCCCNCCCCNCCCNC(=O)CCc1ccc(O)c(O)c1 [KA, Kukoamine A] | significantly decreased | significantly decreased |  |  |  |  |  |  | 
NCCCN(CCCCNCCCNC(=O)CCc1ccc(O)c(O)c1)C(=O)CCc1ccc(O)c(O)c1 [KB, Kukoamine B] | significantly decreased | significantly decreased | 1240 nM | 1240 nM | inhibit the release of TNF-α and IL-6 | inhibit the release of TNF-α and IL-6 | significantly lower | significantly lower | 
polymyxin B [PMB, reference compound] |  |  |  |  | can only inhibit the release of TNF-α and IL-6 induced by LPS | inhibit the release of TNF-α and IL-6 |  |  | high affinity
